Patent US20250263426A1, “PDE4B INHIBITOR AND USE THEREOF” (Xizang Haisco Pharmaceutical Co., Ltd., priority 2022, published 2025)
Read-outs that look alike come from different tables or passages of the source.

Tests used:
PDE4D2 = PDE4D2 (Homo sapiens (Human), UniProt Q08499); test: Effect of compounds on PDE4D2 activity (fluorescence polarization kit); assay type: biochemical
Experimental: FP was usually represented by mP value.
[formula] • I∥ (S520): fluorescence intensity in parallel direction • I⊥ (P520): fluorescence intensity in perpendicular direction • G: G factor=1
[formula] • mP(sample): mP of the test compound in a reaction well • mP(negative control): mP in the negative control well • mP(positive control): mP in the positive control well
According to the calculated inhibition rate at each concentration, the IC50 value of each compound was calculated by GraphPad Prism 8 software.

[1] = system: human peripheral blood mononuclear cells (TNF-α release); test: Inhibition of LPS-induced TNF-α release from human peripheral blood mononuclear cells in vitro; assay type: cell-based; details: 4 h; for Emax: read-out: Max inhibition (%)
Experimental: 5. Detection of Inhibitory Activity of Compounds on the Release of Tumor Necrosis Factor-α (TNF-α) from Human Peripheral Blood Mononuclear Cells Induced by Lipopolysaccharide (LPS) In Vitro
The concentration of hPBMC cells was adjusted to 0.25×10^6 cells/mL with RPMI1640 medium and inoculated into a 96-well plate in an amount of 50000 cells per well. […] Incubation was carried out for 4 h in an incubator at 37° C. and 5% CO2. The cell supernatant was collected, and the content of TNF-α in the supernatant sample was detected by human TNF-α Elisa quantitative test kit (Sino Biological, Cat #KIT10602). The IC50 value was calculated using GraphPad Prism software.

PDE4B2 = PDE4B2 (Homo sapiens (Human), UniProt Q07343); test: Effect of compounds on PDE4B2 activity (fluorescence polarization kit)
PDE4B2, sequence (Q07343 other isoform, or with tags, fused parts or gaps): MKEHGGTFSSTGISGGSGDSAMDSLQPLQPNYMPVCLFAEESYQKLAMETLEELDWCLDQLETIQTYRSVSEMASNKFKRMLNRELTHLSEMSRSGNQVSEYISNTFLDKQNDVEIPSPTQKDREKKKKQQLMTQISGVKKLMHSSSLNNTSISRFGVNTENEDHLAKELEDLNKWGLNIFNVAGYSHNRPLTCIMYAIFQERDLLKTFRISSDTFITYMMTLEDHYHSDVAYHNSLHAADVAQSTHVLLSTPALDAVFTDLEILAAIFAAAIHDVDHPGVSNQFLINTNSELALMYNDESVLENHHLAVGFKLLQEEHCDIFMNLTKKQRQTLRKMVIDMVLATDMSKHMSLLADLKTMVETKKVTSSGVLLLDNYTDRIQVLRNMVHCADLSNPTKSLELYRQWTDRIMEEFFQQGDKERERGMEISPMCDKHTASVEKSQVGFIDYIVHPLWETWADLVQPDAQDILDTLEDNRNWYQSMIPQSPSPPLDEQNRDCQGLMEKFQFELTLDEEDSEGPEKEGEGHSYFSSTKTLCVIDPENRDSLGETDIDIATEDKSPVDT
Excerpt: [formula] • I∥ (S535): fluorescence intensity in parallel direction • I⊥ (P535): fluorescence intensity in perpendicular direction • G: G factor=1

[2] = Homo sapiens, PBMC, read-out: Re IC50
[3] = Homo sapiens, PBMC, hPBMC, 100 ng/mL LPS
[4] = relative IC50, hPBMC, 100 ng/mL LPS, read-out: Re IC50

PDE4D2, sequence (Q08499 303-809, change not shown): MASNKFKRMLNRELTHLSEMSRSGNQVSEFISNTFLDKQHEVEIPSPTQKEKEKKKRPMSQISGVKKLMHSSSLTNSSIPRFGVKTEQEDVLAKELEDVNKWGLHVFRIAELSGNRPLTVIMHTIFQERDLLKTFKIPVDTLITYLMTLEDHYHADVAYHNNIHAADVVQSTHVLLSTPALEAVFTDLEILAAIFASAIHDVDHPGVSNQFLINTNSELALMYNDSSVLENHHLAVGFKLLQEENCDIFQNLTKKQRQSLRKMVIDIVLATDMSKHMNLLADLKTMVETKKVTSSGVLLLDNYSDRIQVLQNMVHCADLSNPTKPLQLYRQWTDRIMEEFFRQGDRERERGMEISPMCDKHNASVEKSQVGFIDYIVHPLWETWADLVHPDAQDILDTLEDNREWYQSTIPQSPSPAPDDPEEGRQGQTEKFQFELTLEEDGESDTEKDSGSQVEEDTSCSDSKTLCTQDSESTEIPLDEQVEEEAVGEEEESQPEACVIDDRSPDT

Compound	IC50 (PDE4D2) [nM]	IC50 [1, 2] [nM]	Emax [1, 3] [%]	IC50 (PDE4B2) [nM]	Max inhibition (%) ([1]; hPBMC, 100 ng/mL LPS)	IC50 [1, 4] [nM]	IC50 (PDE4B2; read-out: PDE4B2 IC50) [nM]	Emax ([1]; Homo sapiens, PBMC) [%]	IC50 ([1]; Homo sapiens, PBMC, read-out: Re IC50 (nM)) [nM]
NC(=O)OCC1(Nc2nc(N3CC=C(c4ncc(Cl)cn4)CC3)nc3c2[S@+]([O-])CC3)CCC1 [Compound 48]	< 10	10 to 50	73.9	< 10	–	–	–	–	–
NC(=O)OCC1(Nc2nc(N3CC=C(c4nc5ccccc5o4)CC3)nc3c2[S@+]([O-])CC3)CCC1 [Compound 49]	< 10	–	–	–	73.46	< 10	< 10	–	–
Cc1coc(C2=CCN(c3nc4c(c(NC5(COC(N)=O)CCC5)n3)[S@+]([O-])CC4)CC2)n1 [Compound 50]	< 10	< 10	72.1	< 10	–	–	–	–	–
NC(=O)OCC1(Nc2nc(N3CC=C(c4ncc(Cl)cn4)CC3)nc3c2[S@+]([O-])CC3)CCCC1 [Compound 52]	< 10	10 to 50	–	< 10	–	–	–	–	–
NC(=O)OCC1(Nc2nc(N3CC=C(c4nc5ccccc5s4)CC3)nc3c2[S@+]([O-])CC3)CCC1 [Compound 56]	< 10	< 10	–	< 10	–	–	–	–	–
C#Cc1cnc(C2=CCN(c3nc4c(c(NC5(COC(F)F)CCC5)n3)[S+]([O-])CC4)CC2)nc1 (stereo not drawn) [Compound 63]	< 10	10 to 50	72.7	< 10	–	–	–	–	–
C#Cc1cnc(C2=CCN(c3nc4c(c(NC5(COC)CCC5)n3)[S@+]([O-])CC4)CC2)nc1 [Compound 64]	< 10	10 to 50	79.9	< 10	–	–	–	–	–
C#Cc1cnc(C2=CCN(c3nc4c(c(NC5(C(C)O)CCC5)n3)[S@+]([O-])CC4)CC2)nc1 (stereo partly drawn) [Compound 66]	< 10	–	–	< 10	–	–	–	67.1	10 to 50
C#Cc1ccc(C2=CCN(c3nc4c(c(NC5(CNC(=O)OC)CCC5)n3)[S@+]([O-])CC4)CC2)nc1 [Compound 69]	< 10	< 10	70.9	< 10	–	–	–	–	–
COC(=O)NCC1(Nc2nc(N3CC=C(c4ncc(Cl)cn4)CC3)nc3c2[S@+]([O-])CC3)CCC1 [Compound 70]	< 10	< 10	55.4	< 10	–	–	–	–	–
[O-][S+]1CCc2nc(N3CCN4c5ccccc5OC[C@H]4C3)nc(NC3(CO)COC3)c21 (stereo partly drawn) [Compound 72-3]	10 to 50	–	–	–	65.66	< 10	< 10	–	–
[O-][S+]1CCc2nc(N3CCN4c5ccccc5OC[C@@H]4C3)nc(NC3(CO)COC3)c21 (stereo partly drawn) [Compound 72-4]	< 10	–	–	–	62.45	< 10	< 10	–	–
COC(=O)NCC1(Nc2nc(N3C[C@@H]4CC(c5ncc(Cl)cn5)=C[C@@H]4C3)nc3c2[S@+]([O-])CC3)CCC1 [Compound 73-1]	< 10	< 10	67.5	< 10	–	–	–	–	–
COC(=O)NCC1(Nc2nc(N3C[C@H]4CC(c5ncc(Cl)cn5)=C[C@H]4C3)nc3c2[S@+]([O-])CC3)CCC1 [Compound 73-2]	10 to 50	< 10	67.9	< 10	–	–	–	–	–
[O-][S@+]1CCc2nc(N3CC4CN(c5ccc6c(c5)CC6)CC4C3)nc(Nc3cccc(F)c3)c21 (stereo partly drawn) [Compound 76-1]	10 to 50	–	–	–	74.65	10 to 50	< 10	–	–
NCC1(Nc2nc(N3CC=C(c4nc5ccccc5s4)CC3)nc3c2[S@+]([O-])CC3)CCC1 [Compound 78]	10 to 50	10 to 50	77.4	10 to 50	–	–	–	–	–

Compound	IC50 (PDE4D2) [nM]	IC50 [1, 2] [nM]	Emax [1, 3] [%]	IC50 (PDE4B2) [nM]	Max inhibition (%) ([1]; hPBMC, 100 ng/mL LPS)	IC50 [1, 4] [nM]	IC50 (PDE4B2; read-out: PDE4B2 IC50) [nM]	Emax ([1]; Homo sapiens, PBMC) [%]	IC50 ([1]; Homo sapiens, PBMC, read-out: Re IC50 (nM)) [nM]
COC(=O)NCC1(Nc2nc(N3CC=C(c4nc5ccccc5s4)CC3)nc3c2[S@+]([O-])CC3)CCC1 [Compound 79]	< 10	10 to 50	65.5	< 10	–	–	–	–	–
[O-][S@+]1CCc2nc(N3CC=C(c4ncc(Cl)cn4)CC3)nc(Nc3ccnc(F)c3)c21 [Compound 85-1]	< 10	–	–	–	71.38	< 10	< 10	–	–
COC(=O)NCC(C)(C)Nc1nc(N2CC=C(c3ncc(Cl)cn3)CC2)nc2c1[S@+]([O-])CC2 [Compound 88]	< 10	–	–	–	74.9	< 10	< 10	–	–
CNC(=O)OCC1(Nc2nc(N3CC=C(c4ncc(C5CC5)cn4)CC3)nc3c2[S@+]([O-])CC3)CCC1 [Compound 90]	10 to 50	10 to 50	69.5	10 to 50	–	–	–	–	–
C#Cc1ccc(C2=CCN(c3nc4c(c(NC5([C@H](C)O)CCC5)n3)[S@+]([O-])CC4)CC2)nc1 [Compound 95-2]	< 10	–	–	–	70.67	< 10	< 10	–	–
C#Cc1ccc(C2=CCN(c3nc4c(c(NC5([C@@H](C)O)CCC5)n3)[S@@+]([O-])CC4)CC2)nc1 [Compound 95-3]	< 10	–	–	–	81.97	< 10	< 10	–	–
C#Cc1cnc(C2=CCN(c3nc4c(c(NC5([C@@H](C)O)CCC5)n3)[S@+]([O-])CC4)CC2)nc1 [Compound 96-1]	10 to 50	–	–	–	72.83	< 10	< 10	–	–
C#Cc1cnc(C2=CCN(c3nc4c(c(NC5([C@H](C)O)CCC5)n3)[S@+]([O-])CC4)CC2)nc1 [Compound 96-2]	< 10	–	–	–	81.63	< 10	< 10	–	–
C#Cc1cnc(C2=CCN(c3nc4c(c(NC5([C@H](C)O)CCC5)n3)[S@@+]([O-])CC4)CC2)nc1 [Compound 96-4]	10 to 50	–	–	–	70.23	10 to 50	10 to 50	–	–
CC#Cc1ccc(C2=CCN(c3nc4c(c(NC5(COC(N)=O)CCC5)n3)[S@+]([O-])CC4)CC2)nc1 [Compound 98]	< 10	< 10	72.7	< 10	–	–	–	–	–
CC#Cc1ccc(C2=CCN(c3nc4c(c(NC5(CNC(=O)OC)CCC5)n3)[S@+]([O-])CC4)CC2)nc1 [Compound 100]	< 10	< 10	79.2	< 10	–	–	–	–	–
CC#Cc1ccc(C2=CCN(c3nc4c(c(NC(C)(C)COC(N)=O)n3)[S@+]([O-])CC4)CC2)nc1 [Compound 101]	< 10	< 10	80	< 10	–	–	–	–	–
CNC(=O)OCC(C)(C)Nc1nc(N2CC=C(c3ncc(Cl)cn3)CC2)nc2c1[S@+]([O-])CC2 [Compound 104]	10 to 50	10 to 50	78.8	10 to 50	–	–	–	–	–
C#Cc1ccc(C2=CCN(c3nc4c(c(NC(C)(C)COC(N)=O)n3)[S@+]([O-])CC4)CC2)nc1 [Compound 105]	< 10	< 10	84	< 10	–	–	–	–	–
CC(C)(COC(N)=O)Nc1nc(N2CC=C(c3ncc(N4CC[Si](C)(C)CC4)cn3)CC2)nc2c1[S@+]([O-])CC2 [Compound 106]	10 to 50	–	–	–	98.36	10 to 50	10 to 50	–	–
CN1C[C@@H](Nc2nc(N3C[C@H]4CN(c5ccc6c(c5)CC6)C[C@H]4C3)nc3c2[S@@+]([O-])CC3)CCC1=O [Compound 109-4]	< 10	–	–	–	85.74	< 10	< 10	–	–
